Key:
[1] = system: acute blood stagnation model rats; experiment: Erythrocyte aggregation and deformability in acute blood stagnation model rats; type: in vivo, rat; details: for effect on erythrocyte aggregation index (in words) / effect on erythrocyte deformability (in words): vs. model group; for Erythrocyte aggregation SS / Erythrocyte deformability SSS: area under curve; for Erythrocyte aggregation MAXD: maximal erythrocyte aggregation index; for Erythrocyte deformability MAXDI: maximal erythrocyte deformation index
Method: MAO Teng-min's methods were modified to prepare the model. Rats were subcutaneously injected with 0.8 mg/kg adrenaline twice at 1 h and 5 h after administration on the fifth day, and were placed into ice-water at 4° C. for 5 min at 2 h after the first injection of adrenaline.
To 40 μl of heparinized blood, 1 ml of deforming solution was added and mixed thoroughly. A sample of 0.8 ml was tested in an erythrocyte aggregation/deformability tester, and erythrocyte deformability was expressed as maximal erythrocyte deformation index and area under curve (SSS). Another 0.8 ml of anticoagulated blood was tested in an erythrocyte aggregation/deformability tester, and erythrocyte aggregation was expressed as maximal erythrocyte aggregation index (MAXD) and area under curve ([…]).

[2] = Fenton reaction system; paramagnetic method; cited from earlier work
[3] = system: acute blood stagnation model rats; experiment: Whole blood and plasma viscosities in acute blood stagnation model rats; type: in vivo, rat; details: for effect on whole blood and plasma viscosities (in words): 10 mg/kg, 20 mg/kg and 40 mg/kg, high, middle and low shear rates
From the text: MAO Teng-min's methods were modified to prepare the model.

[4] = system: cerebral ischemia-reperfusion model rats; experiment: Inflammatory factors in brain tissues in cerebral ischemia-reperfusion rats (overall statement); details: 40 mg/kg
TNF-α = experiment: ELISA of TNF-α in brain tissue of cerebral ischemia-reperfusion rats; details: brain homogenate
IL-1β = experiment: ELISA of IL-1β in brain tissue of cerebral ischemia-reperfusion rats; details: brain homogenate
IL-10 = experiment: ELISA of IL-10 in brain tissue of cerebral ischemia-reperfusion rats; details: brain homogenate
[5] = system: streptozocin-induced diabetic mouse; details: cited from earlier work
[6] = system: FeCl3-Induced Middle Cerebral Artery Thrombosis (MCAT) Rats; experiment: Cerebral infarct size (TTC staining) in FeCl3-induced middle cerebral artery thrombosis rats; type: in vivo, rat; details: for cerebral infarct size percentage to affected side / cerebral infarct size percentage to total brain: x ± s; for effect on cerebral infarct size (in words): 20 mg/kg and 40 mg/kg, 7 days
From the text: (§1) Tamura and Liu's methods were used with modifications to prepare the model. Rats were anesthetized by intraperitoneal injection of 10% chloral hydrate (0.35 g/kg); and fixed with right arm reclining. An arc incision of about 1.5 cm in length was made at the midpoint between the link of paropia and external auditory canal and temporalis was removed to expose the temporal bone. […] The surrounding-tissues were protected with a piece of plastic film. A small piece of quantitative filter paper, which had absorbed 10 μL of a 50% ferric chloride solution, was applied on this segment of middle cerebral artery. The filter paper was removed after 30 min, and local tissues were rinsed with normal saline solution, followed by suture layer by layer. Then the experimental rats were put back to rearing cage. The temperature was controlled at 24° C. For the sham-operation group, the operation procedures were the same as the model group except for the application of the ferric chloride solution.
After behavior assessment, the animals were decapitated to remove the brains. The olfactory bulb, cerebellum and lower brain stem were removed, and the remaining part was cut into 5 coronal sections below 4° C. The sections were immediately placed into a TTC staining solution (containing 1.5 m 4% TTC, 0.1 ml 1M K2HPO4 and water (balance) per 5 ml staining solution), followed by incubation in dark at 37° C. for 30 min. Then, the sections were transferred into a solution of 10% formaldehyde and incubated in dark for 24 h. After staining, the non-ischemic areas were rose red, and the infracted areas were white. The white tissues were carefully collected and weighed. The extent of cerebral infarction was expressed as a percentage (%) of infracted tissue to the weight of total brain and also to the affected side of brain.

TGF-β = experiment: ELISA of TGF-β in brain tissue of cerebral ischemia-reperfusion rats; details: brain homogenate
[7] = system: FeCl3-Induced Middle Cerebral Artery Thrombosis (MCAT) Rats; experiment: Neurological symptom score in middle cerebral artery thrombosis rats; type: in vivo, rat; details: for effect on neurological symptoms (in words): 20 mg/kg and 40 mg/kg, 7 days; for neurological symptomatic score 6 h: 6 h after operation; for neurological symptomatic score 6 h / neurological symptomatic score 24 h: full score 4; for neurological symptomatic score 24 h: 24 h after operation
From the text: as §1
The experimental animals were tested for behaviors 6 h and 24 h after operation according to the Sederson's method with modifications. Criteria: (1) The tail of the rat was lifted to observe the flexibility of the forelimb, with both forelimbs symmetrically stretching forward scored as 0, and occurrence of any or all of shoulder inflexion, elbow inflexion, shoulder intorsion in the contralateral fore-limb opposite to the operation side scored as 1. (2) The animal was placed on a plane, and its shoulders were pushed to the opposite direction to check resistance, Equivalency and strong resistance in both sides was scored as 0, and reduction in resistance in the contralateral side was scored as 1. (3) Both forelimbs of the rat were placed on wire gauze to observe the muscular tension. […] According to the criteria above, the full score is 4, and the higher the score is, the more serious the behavior disorder of the animal is.

platelet aggregation = details: cited from earlier work
[8] = system: Middle Cerebral Artery Thrombosis (MCAT) Rats; experiment: Water content in brain tissues in middle cerebral artery thrombosis rats; type: in vivo, rat; details: for Water content of affected hemisphere / Water content of unaffected hemisphere: 24 h after operation
[9] = 40 mg/kg, listed as timosaponin BII, 40 mg/kg
[10] = vs. model group P<0.05, P<0.01, listed as timosaponin BIT

## C[C@@H](CCC1(O)O[C@H]2C[C@H]3[C@@H]4CC[C@@H]5C[C@@H](O[C@@H]6O[C@H](CO)[C@H](O)[C@H](O)[C@H]6O[C@@H]6O[C@H](CO)[C@@H](O)[C@H](O)[C@H]6O)CC[C@]5(C)[C@H]4CC[C@]3(C)[C@H]2[C@@H]1C)CO[C@@H]1O[C@H](CO)[C@@H](O)[C@H](O)[C@H]1O (stereo partly drawn) [Timosaponin BII, (25S)-26-O-β-D-glucopyranosyl-22-hydroxy-5β-furostane-3β,26-diol-3-O-β-D-glucopyranosyl(1→2)-β-D-galactopyranoside]
[1]; 40 mg/kg, 40 mg/kg
  effect on erythrocyte aggregation index (in words): reduce the erythrocyte agglutination index
  effect on erythrocyte deformability (in words): significantly improve the deformation ability of erythrocytes
[1]; [9]
  effect on erythrocyte aggregation index (in words): decrease in erythrocyte aggregation index
  effect on erythrocyte deformability (in words): significant increase in erythrocyte deformability index
[1]; 10 mg/kg
  Erythrocyte aggregation SS: 186.67 ± 28.85
  Erythrocyte deformability SSS: 363.88 ± 19.58
  Erythrocyte aggregation MAXD: 0.94 ± 0.14
  Erythrocyte deformability MAXDI: 0.72 ± 0.05
[1]; 20 mg/kg
  Erythrocyte aggregation SS: 163.04 ± 50.23
  Erythrocyte deformability SSS: 363.97 ± 27.87
  Erythrocyte aggregation MAXD: 0.81 ± 0.26
  Erythrocyte deformability MAXDI: 0.71 ± 0.05
[1]; 40 mg/kg
  Erythrocyte aggregation SS: 152.78 ± 28.11
  Erythrocyte deformability SSS: 374.26 ± 15.82
  Erythrocyte aggregation MAXD: 0.76 ± 0.14
  Erythrocyte deformability MAXDI: 0.73 ± 0.03
[2]
  free radicals cleared: 57%
[3]; 10 mg/kg by gavage 5 days
  Plasma viscosity (100 S^−1): 1.40 ± 0.10
  Whole blood viscosity 1 S^−1: 27.03 ± 4.64
  Whole blood viscosity 5 S^−1: 11.02 ± 1.38
  Whole blood viscosity 30 S^−1: 6.10 ± 0.85
  Whole blood viscosity 200 S^−1: 4.45 ± 0.71
[3]; P<0.05, P<0.01
  effect on whole blood and plasma viscosities (in words): significantly lowered whole blood and plasma viscosities
[3]; P<0.05, P<0.01, listed as timosaponin BII
  effect on whole blood and plasma viscosities (in words): significantly reduce the whole blood and plasma viscosities
[3]; 20 mg/kg by gavage 5 days
  Plasma viscosity (100 S^−1): 1.36 ± 0.10
  Whole blood viscosity 1 S^−1: 33.13 ± 5.70
  Whole blood viscosity 5 S^−1: 12.91 ± 1.82
  Whole blood viscosity 30 S^−1: 6.55 ± 0.93
  Whole blood viscosity 200 S^−1: 4.49 ± 0.70
[3]; 40 mg/kg by gavage 5 days
  Plasma viscosity (100 S^−1): 1.38 ± 0.12
  Whole blood viscosity 1 S^−1: 31.21 ± 4.29
  Whole blood viscosity 5 S^−1: 12.46 ± 1.33
  Whole blood viscosity 30 S^−1: 6.45 ± 0.60
  Whole blood viscosity 200 S^−1: 4.42 ± 0.38
[4]
  effect on levels of inflammatory factors IL-1β, TNF-α, IL-10, TGF-β (in words): significantly reduced the levels of these inflammatory factors
TNF-α; 10 mg/kg by gavage 5 days
  TNFα: 8.44 ± 0.62 pg/mL
TNF-α; 40 mg/kg by gavage 5 days
  TNFα: 7.65 ± 0.61 pg/mL
IL-1β; 10 mg/kg by gavage 5 days
  IL-1β: 9.70 ± 0.30 pg/mL
IL-1β; 40 mg/kg by gavage 5 days
  IL-1β: 7.98 ± 0.80 pg/mL
IL-10; 10 mg/kg by gavage 5 days
  IL-10: 14.49 ± 11.78 pg/mL
IL-10; 40 mg/kg by gavage 5 days
  IL-10: 11.19 ± 5.16 pg/mL
[5]
  blood sugar level (in words): can lower blood sugar level
[6]; 10 mg/kg by gavage 7 days
  cerebral infarct size percentage to affected side: 6.35 ± 3.39%
  cerebral infarct size percentage to total brain: 3.27 ± 1.74%
[6]; vs. model group P<0.05, P<0.01
  effect on cerebral infarct size (in words): significantly reduced the cerebral infarct size
[6]; [10]
  effect on cerebral infarct size (in words): significantly reduce the cerebral infarct size
[6]; 20 mg/kg by gavage 7 days
  cerebral infarct size percentage to affected side: 5.37 ± 2.20 %
  cerebral infarct size percentage to total brain: 2.92 ± 1.20 %
[6]; 40 mg/kg by gavage 7 days
  cerebral infarct size percentage to affected side: 3.88 ± 2.38 %
  cerebral infarct size percentage to total brain: 1.99 ± 1.20 %
TGF-β; 10 mg/kg by gavage 5 days
  TGF-β: 12.70 ± 3.57 pg/mL
TGF-β; 40 mg/kg by gavage 5 days
  TGF-β: 10.30 ± 3.79 pg/mL
[7]; vs. model group P<0.05, P<0.01
  effect on neurological symptoms (in words): ameliorate neurological symptoms
[7]; [10]
  effect on neurological symptoms (in words): significantly lower the neurological symptom score
[7]; 10 mg/kg by gavage 7 days
  neurological symptomatic score 6 h: 2.08 ± 0.67
  neurological symptomatic score 24 h: 2.08 ± 0.79
[7]; 20 mg/kg by gavage 7 days
  neurological symptomatic score 6 h: 1.82 ± 0.75
  neurological symptomatic score 24 h: 2.00 ± 0.45
[7]; 40 mg/kg by gavage 7 days
  neurological symptomatic score 6 h: 1.50 ± 0.71
  neurological symptomatic score 24 h: 1.90 ± 0.74
Platelet aggregation
  clotting time (in words): prolonging clotting time
  platelet aggregation (in words): obviously inhibiting platelet aggregation
[8]; 40 mg/kg, vs. model group P<0.05, 40 mg/kg
  effect on water content of brain / cerebral edema (in words): significantly lowered the water content in the affected hemisphere
[8]; 40 mg/kg, vs. model group P<0.05, listed as timosaponin BIT, 40 mg/kg
  effect on water content of brain / cerebral edema (in words): significantly reduce the water content of brain
[8]; 10 mg/kg
  Water content of affected hemisphere: 80.52 ± 0.69%
  Water content of unaffected hemisphere: 79.51 ± 0.57%
[8]; 20 mg/kg
  Water content of affected hemisphere: 80.46 ± 0.79%
  Water content of unaffected hemisphere: 79.41 ± 0.38%
[8]; 40 mg/kg
  Water content of affected hemisphere: 80.15 ± 0.99 %
  Water content of unaffected hemisphere: 79.47 ± 0.44%

— patent US7998936B2, “Use of timosaponin Bll in the preparation of a medicament or product for the prevention and treatment of stroke” (Institute of Radiation Medicine, Academy of Military …, priority 2004, dated 2011)
